What is called MIC is the least concentration at which growth counts as inhibited.

Results on three molecules are retold here after patent publication US20120282356A1, “COMPOSITIONS FOR PREVENTION AGAINST SPOILAGE BY MOULDS AND YEASTS AND USES AND PRODUCTS RELATED THERETO” (MARS INCORPORATED, priority 2009, published 2012).

The experiment relates to Aspergillus niger DSMZ 737. The experiment is described as follows: Minimum Inhibition Concentration (MIC) test in YG broth cell culture plates. The experiment is classed as cell-based. Conditions: substance alone, 3 days at 30° C., no visible growth of mycelium. How it is done: Further tests have been conducted to establish synergistic activity of the antimycotic cocktails of the present invention. These tests are based on determination of the Minimum Inhibition Concentration (MIC).
For the tests, cell culture plates with YG broth as a base were used. Test samples were inoculated with a conidial suspension of Aspergillus niger DSMZ 737 and incubated for 3 days at 30° C. The targeted spore count was at approximately 10^5 spores/ml. As Minimal Inhibition Concentration (MIC) the concentration of active ingredient with no visible growth of mycelium in the cavity was defined. In addition, results were confirmed microscopically and in a culture on YGC plates.
To dissolve the different mixtures, one of the following media was used as appropriate: distilled water; distilled water+0.5% Tween 80; distilled water+0.4% Lecithine.

Consider `O=C(O)CC(O)C(=O)O` (stereo not drawn) [malic acid], for which the “Minimum Inhibition Concentration (MIC)” value is given as “no MIC”. Consider cinnamon aldehyde, for which the “Minimum Inhibition Concentration (MIC)” value was found to be 200 ppm. On to `CCCCCCCC(=O)O` [caprylic acid], for which the MIC (Aspergillus niger, DSMZ737, 72 h) was determined as 2000 µg/mL.
